Read-outs that look alike come from different tables or passages of the source.
Legend:
STS [1] = settings: cited from earlier work
STS [2] = target: T1, STS (Homo sapiens, UniProt P08842); assay: Inhibition of STS activity in intact monolayers of JEG-3 cells; format: cell-based; settings: for inhibition at 10 µM: JEG-3, JEG-3 cells
T1 sequence (P08842 22-583): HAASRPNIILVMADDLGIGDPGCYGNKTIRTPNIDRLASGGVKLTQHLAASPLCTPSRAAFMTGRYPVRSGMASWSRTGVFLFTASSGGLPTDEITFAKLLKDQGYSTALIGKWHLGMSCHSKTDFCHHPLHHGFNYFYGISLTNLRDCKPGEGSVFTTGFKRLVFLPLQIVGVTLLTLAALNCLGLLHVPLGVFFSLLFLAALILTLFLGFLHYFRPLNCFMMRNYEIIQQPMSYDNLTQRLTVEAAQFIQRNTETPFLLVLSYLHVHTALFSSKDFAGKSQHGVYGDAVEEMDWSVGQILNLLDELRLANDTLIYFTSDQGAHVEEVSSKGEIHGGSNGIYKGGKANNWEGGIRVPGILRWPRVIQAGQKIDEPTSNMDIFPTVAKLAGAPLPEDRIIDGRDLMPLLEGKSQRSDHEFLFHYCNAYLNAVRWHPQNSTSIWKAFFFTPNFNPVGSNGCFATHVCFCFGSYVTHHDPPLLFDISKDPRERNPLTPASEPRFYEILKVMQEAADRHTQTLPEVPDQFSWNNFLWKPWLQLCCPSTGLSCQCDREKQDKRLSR

rat liver STS = settings: 24 h after administration, cited from earlier work
liver STS, skin STS = settings: 1 and 10 mg kg^−1, cited from earlier work
[3] = preparation of placental microsomes
[4] = read-out: PM IC50, placental microsomes

SMILES | IC50 (STS [1]; [4]) | IC50 (STS [2]) | inhibition at 10 µM (STS [2]; determined at 10 μM) | other results
COc1cc2c(cc1OS(N)(=O)=O)CC[C@@H]1[C@@H]2CC[C@]2(C)C(=O)CC[C@@H]12 [2-methoxyestrone 3-O-sulfamate, reference compound] |  |  |  | IC50 (STS [1]; [3]): 30 nM
NS(=O)(=O)Oc1ccc2c3c(c(=O)oc2c1)CCCCC3 [Compound 1, Irosustat] | 8 nM |  |  | 
NS(=O)(=O)Oc1ccc2c3c(c(=O)oc2c1)CCCCCCC3 [Compound 6, 6-Oxo-6,7,8,9,10,11,12,13-octahydrocyclonona[c]chromen-3-yl sulfamate] | 2.4 nM | 0.022 nM |  | 
NS(=O)(=O)Oc1ccc2c3c(c(=O)oc2c1)CCCCCCCC3 [Compound 7, 6-Oxo-7,8,9,10,11,12,13,14-octahydro-6H-cyclodeca[c]chromen-3-yl sulfamate] | 1 nM | 0.025 nM |  | 
NS(=O)(=O)Oc1ccc2c3c(c(=O)oc2c1)CCCCCCCCCC3 [Compound 9, 6-Oxo-7,8,9,10,11,12,13,14,15,16-decahydro-6H-cyclododeca[c]chromen-3-yl sulfamate] | 60 nM | 100 nM |  | 
NS(=O)(=O)Oc1ccc2c3c(c(=O)oc2c1)CCCCCCCCCCC3 [Compound 10, 6-Oxo-6,7,8,9,10,11,12,13,14,15,16,17-dodecahydrocyclotrideca[c]chromen-3-yl sulfamate] | 75 nM | 220 nM |  | 
NS(=O)(=O)Oc1ccc2c3c(c(=O)oc2c1)CCCCCCCCCCCCC3 [Compound 11, 6-Oxo-6,7,8,9,10,11,12,13,14,15,16,17,18,19-tetradecahydrocyclopentadeca[c]chromen-3-yl sulfamate] | 370 nM | 1600 nM |  | Inhibition of rat liver STS activity (rat liver STS; 0.1 mg kg^−1): 23%; Inhibition of rat liver STS activity (rat liver STS; 1 mg kg^−1): 94%
CN(C)S(=O)(=O)Oc1ccc2c3c(c(=O)oc2c1)CCCCC3 [Compound 12, 6-Oxo-6,7,8,9,10,11-hexahydrocyclohepta[c]chromen-3-yl dimethylsulfamate] |  | > 10000 nM |  | Inhibition of skin and liver STS (liver STS, skin STS; applied topically): inhibits skin as well as liver STS effectively; Inhibition of liver STS activity (liver STS, skin STS; nude mice, oral): inhibits liver STS activity potently; JEG-3 IC50 (STS [2]; JEG-3 cells, Table 1): inactive
COc1cc2c3c(c(=O)oc2cc1OS(N)(=O)=O)CCCCC3 [Compound 13, 2-Methoxy-6-oxo-6,7,8,9,10,11-hexahydrocyclohepta[c]chromen-3-yl sulfamate] |  | 78 ± 13 nM |  | 
NS(=O)(=O)Oc1ccc2oc(=O)c3c(c2c1)CCCCC3 [Compound 14, 6-oxo-6,7,8,9,10,11-hexahydrocyclohepta[c]chromen-2-yl sulfamate] |  | 283 ± 66 nM |  | 
NS(=O)(=O)Oc1ccc2c3c(c(=O)[nH]c2c1)CCCCC3 [Compound 16, 6-Oxo-6,7,8,9,10,11-hexahydro-5H-cyclohepta[c]quinolin-3-yl sulfamate] |  | 240 ± 40 nM | 98% | Fold less potent than 1 (STS [2]; JEG-3 IC50 versus 1): 160 fold; Inhibition (STS [2]; JEG-3 cells, determined at 10 μM, 10 µM): 96%
Cn1c(=O)c2c(c3ccc(OS(N)(=O)=O)cc31)CCCCC2 [Compound 18, 5-Methyl-6-oxo-6,7,8,9,10,11-hexahydro-5H-cyclohepta[c]quinolin-3-yl sulfamate] |  | 2400 nM |  | 
COc1nc2cc(OS(N)(=O)=O)ccc2c2c1CCCCC2 [Compound 19, 6-Methoxy-8,9,10,11-tetrahydro-7H-cyclohepta[c]quinolin-3-yl sulfamate] |  |  | 68% | 
CCCCCn1c(=O)c2c(c3ccc(OS(N)(=O)=O)cc31)CCCCC2 [Compound 20, 6-Oxo-5-pentyl-6,7,8,9,10,11-hexahydro-5H-cyclohepta[c]quinolin-3-yl sulfamate] |  |  | < 10% | 
CCCCCOc1nc2cc(OS(N)(=O)=O)ccc2c2c1CCCCC2 [Compound 21, 6-(Pentyloxy)-8,9,10,11-tetrahydro-7H-cyclohepta[c]quinolin-3-yl sulfamate] |  |  | < 10% | 
NS(=O)(=O)Oc1ccc2c3c(c(=O)n(CCCc4ccccc4)c2c1)CCCCC3 [Compound 22, 6-Oxo-5-(3-phenylpropyl)-6,7,8,9,10,11-hexahydro-5H-cyclohepta[c]quinolin-3-yl sulfamate] |  |  | 20% | 
NS(=O)(=O)Oc1ccc2c3c(c(OCCCc4ccccc4)nc2c1)CCCCC3 [Compound 23, 6-(3-Phenylpropoxy)-8,9,10,11-tetrahydro-7H-cyclohepta[c]quinolin-3-yl sulfamate] |  |  | < 10% | 
NS(=O)(=O)Nc1ccc2c3c(c(=O)[nH]c2c1)CCCCC3 [Compound 24, 6-Oxo-6,7,8,9,10,11-hexahydro-5H-cyclohepta[c]quinolin-3-ylsulfamide] |  | > 1000 nM |  | 
C[C@]12CC[C@@H]3c4ccc(OS(N)(=O)=O)cc4CC[C@H]3[C@@H]1CCC2=O [EMATE, oestrone 3-O-sulfamate, reference compound] |  |  |  | IC50 (STS [1]; [3]): 4 nM
